These results are taken from patent EP2272817A1, “PAI-1 INHIBITOR” (Institute of Medicinal Molecular Design, Inc., priority 2008, dated 2009).

In experiment [1] the target is T1, recombinant human PAI-1 (Homo sapiens, UniProt P05121). The experiment is described as follows: Test Example 2: Human PAI-1 Inhibitory Activity (pH 7.4 HEPES buffer, 10 minutes incubation with two-chain tPA). Particulars: read-out: Inhibition Rate of PAI-1 Activity (%). The format is biochemical. On the set-up: purchased Molecular Innovations, Inc. As for the experimental part:
0.1 M HEPES, 0.1 M NaCl. 1 mM EDTA. 0.1 % Polyethylene glycol 8,000 (Hampton Research Corporation),
2 mM Dimethyldecylphoshine oxide [Apo-10] (Fluka Corporation)

Experiment [2] has as its target T1, recombinant human PAI-1. The experiment is described as follows: biochemical.
The next experiment deals with T2, recombinant rat PAI-1 (Rattus norvegicus, UniProt P20961).
T2 sequence (P20961 24-402): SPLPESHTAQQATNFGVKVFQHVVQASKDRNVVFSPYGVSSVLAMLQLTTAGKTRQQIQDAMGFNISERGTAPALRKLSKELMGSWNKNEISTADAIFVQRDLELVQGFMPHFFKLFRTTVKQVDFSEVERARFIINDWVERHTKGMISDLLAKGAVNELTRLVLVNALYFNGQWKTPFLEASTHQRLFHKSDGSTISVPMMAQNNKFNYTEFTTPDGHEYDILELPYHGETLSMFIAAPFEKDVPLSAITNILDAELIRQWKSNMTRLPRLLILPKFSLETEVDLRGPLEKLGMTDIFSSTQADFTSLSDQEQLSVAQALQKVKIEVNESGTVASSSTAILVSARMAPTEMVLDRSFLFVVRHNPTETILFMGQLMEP
The experiment is described as follows: biochemical. The settings on record: read-out: Inhibition Rate of PAI-1 Activity (%).

The target in experiment [3] is T1, recombinant human PAI-1. As to the kind of experiment: Test Example 4: Human PAI-1 Inhibitory Activity (amount of PAI-1 bound to plate-coated one-chain tPA, ELISA). The settings on record: human PAI-1 bound to tPA, read-out: Inhibition Rate of PAI-1 Activity (%); for inhibition at 0.3 µM: Compound Concentration 0.3µM; for inhibition at 1 µM: Compound Concentration 1µM; for inhibition at 3 µM: Compound Concentration 3µM. On the set-up: purchased Molecular Innovations, Inc. The format is biochemical. As for the experimental part:
100 µl of tPA solution, where one-chain recombinant tPA (hereinafter reffered to as tPA; American diagnostica, inc.) had been diluted with Buffer A to acheive a concentration of 10 µg/ml, was added to each well of a 96-well plate (Nunc Maxisorp), and the plate was incubated for one night at 4 °C to be coated with tPA. Then, after suction of tPA solution from the 96-well plate, the plate was rinsed successively with Buffer A and Buffer B. To Buffer B, solutions of the compound according to the present invention dissolved with DMSO (final DMSO concentration: 0.2 %) and recombinant human PAI-1 (Molecular Innovations, Inc.) were added. The mixtures were blended so that the final concentrations would be 0.1 to 3.0 µM and 50 ng/ml respectively, and were incubated for 15 minutes on ice. These mixed solutions were added to the rinsed 96-well plate at 100 µl/well, and incubated for 60 minutes at room temperature. To prepare a calibration curve, PAI-1 solutions without the compound according to the present invention (solutions where the final concentrations being 100, 50, 25, 12.5, 6.25, 3.13, or 1.56 ng/ml PAI-1) were added at 100 µl/well, and the plate was incubated for 60 minutes at room temperature, as standard.
After incubation, the reaction mixture was removed by suction, and each well was rinsed with Wash Buffer. Next, anti-human PAI-1 monoclonal antibody (PROGEN Inc.) diluted with Buffer C to be 3.0 µg/ml was added to the 96-well plate at 100 µl/well, and the plate was incubated for 1 hour at room temperature. After rinsing each well with Wash Buffer, alkaline phosphatase-labeled goat anti-mouse IgG (H+L) (Jackson ImmunoResearch, Inc.) diluted with Buffer D to be 0.12 µg/ml was added at 100 µl/well, and the plate was incubated for 1 hour at room temperature. After rinsing each well with Wash Buffer, 1.0 mg/ml p-Nitrophenyl Phosphate (SIGMA) was added to the 96-well plate at 100 µl/well to start the reaction. After 30 to 60 minutes, 25 µl of 0.5 N NaOH was added to stop the reaction, and the absorbance was measured at 405 nm using a multiplate reader (GENios; TECAN G.M.B.H.).
Based on the calibration curve prepared from the standard wells, amounts of PAI-1 bound to tPA in the wells that had been treated with the compound according to the present invention were calculated, and the PAI-1 inhibition rates by the compounds according to the present invention were obtained by the following equation. [API-1InhibitionRate(%)] = [1-(amountofPAI-1boundtotPaonthewellbytreatmentwiththecompondaccordingtothepresentinvention)/(amountofPAI-1boundtotPAonthewellbytreatmentwithPAI-1solutionnotincledingthecompondaccordingtotheinvention(solution having the final concentration of 50 nb/ml PAI-1)] × 100 [formula] • <Composition of Buffer A> 0.1 M Tris-HCl, 150 mM NaCl, pH 7.7 • <Composition of Buffer B> 50 mM sodium phosphate, 0.1 M NaCl, 1 mM EDTA, pH 6.6 • <Composition of Buffer C> 50 mM sodium phosphate, 100 mM NaCl, pH 7.4 • <Composition of Buffer D> 0.01 M Tris-HCl, 0.25 M NaCl, pH 8.0 • <Compositon of Wash Buffer> 0.05 % Tween 20, 0.1 % BSA in Buffer A • <Composition of p-Nitrophenyl Phosphate solution> 1 M Diethanolamine 0.5 mM MgCl2, p-Nitrophenyl phosphate, pH 9.8
In general terms: In an ELISA, binding on a coated surface is turned into a signal by an enzyme label.

Setting [4] is: read-out: Inhibition Rate of PAI-1 Activity (%).
[5] abbreviates: read-out: Inhibition Rate of PAI-1 Activity (%), Compound Concentration 5µM.
The mark [6] stands for this setting: read-out: Inhibition Rate of PAI-1 Activity (%), Compound Concentration 10µM.
Where [7] appears, read: read-out: Inhibition Rate of PAI-1 Activity (%), Compound Concentration 25µM.

Where two headings read alike, the source gives them in different places.

T1 sequence (P05121 24-402): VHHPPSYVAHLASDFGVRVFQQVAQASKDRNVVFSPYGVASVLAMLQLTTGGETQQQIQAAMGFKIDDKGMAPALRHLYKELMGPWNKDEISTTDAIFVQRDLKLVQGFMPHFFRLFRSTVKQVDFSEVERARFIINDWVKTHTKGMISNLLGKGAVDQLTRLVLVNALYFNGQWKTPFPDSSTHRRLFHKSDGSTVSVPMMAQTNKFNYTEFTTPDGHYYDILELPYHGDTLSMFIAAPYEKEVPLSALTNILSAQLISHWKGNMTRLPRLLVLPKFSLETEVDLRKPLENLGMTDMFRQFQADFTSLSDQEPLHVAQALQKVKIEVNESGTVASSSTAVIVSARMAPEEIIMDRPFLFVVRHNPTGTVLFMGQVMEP

Turning to `CC(C)(C)c1ccc(Oc2cc(-c3ccc(OC(F)(F)F)cc3)ccc2OCC(=O)O)cc1` [Compound 112], at recombinant human PAI-1 [1], the inhibition at 0.1 µM turned out to be 0%, the inhibition at 0.3 µM amounted to 19%, the inhibition at 1 µM worked out at 56% and the inhibition at 3 µM was more than 99%. Also, on recombinant human PAI-1 [2] (setting [4]), the inhibition at 5 µM turned out to be 34%, the inhibition at 10 µM is 82% and the inhibition at 25 µM stood at 95%. At recombinant rat PAI-1, the inhibition at 0.3 µM turned out to be 0%, the inhibition at 1 µM came out at 14%, the inhibition at 3 µM is 75% and the inhibition at 10 µM was determined as 96%. Also, on recombinant human PAI-1 [3], the inhibition at 0.3 µM came to 0%, the inhibition at 1 µM is 6% and the inhibition at 3 µM is 36%.

As for `CC(C)(Oc1cccc(-c2ccc(OC(F)(F)F)cc2)c1OCc1ccc(C(C)(C)C)cc1)C(=O)O` [Compound 118], at recombinant human PAI-1 [1], the inhibition at 0.1 µM came to 0%, the inhibition at 0.3 µM was 6%, the inhibition at 1 µM worked out at 49% and the inhibition at 3 µM is more than 99%. In addition, on recombinant human PAI-1 [2] (setting [5]), the inhibition at 5 µM was found to be 56%. Also, the inhibition at 10 µM on recombinant human PAI-1 [2] (setting [6]) stood at 82%. Also, at recombinant human PAI-1 [2] (setting [7]), the inhibition at 25 µM was 93%. For the same compound, at recombinant rat PAI-1, the inhibition at 0.3 µM amounted to 0%, the inhibition at 1 µM worked out at 16%, the inhibition at 3 µM was determined as 77% and the inhibition at 10 µM was 93%. For the same compound, at recombinant human PAI-1 [3], the inhibition at 0.3 µM is 0%, the inhibition at 1 µM came out at 4% and the inhibition at 3 µM amounted to 46%.

As for `CC(C)(C)c1ccc(CN(C(=O)C(=O)O)c2cccc(-c3ccc(OC(F)(F)F)cc3)c2)cc1` [Compound 130], at recombinant human PAI-1 [1], the inhibition at 0.1 µM was 0%, the inhibition at 0.3 µM is 2%, the inhibition at 1 µM worked out at 18% and the inhibition at 3 µM was 84%. Further, the inhibition at 5 µM on recombinant human PAI-1 [2] (setting [5]) came to 82%. Further, the inhibition at 10 µM on recombinant human PAI-1 [2] (setting [6]) turned out to be 96%. Also, on recombinant rat PAI-1, the inhibition at 0.3 µM was 1%, the inhibition at 1 µM stood at 16%, the inhibition at 3 µM is 50% and the inhibition at 10 µM was more than 99%. At recombinant human PAI-1 [3], the inhibition at 0.3 µM was 1%, the inhibition at 1 µM was found to be 3% and the inhibition at 3 µM worked out at 15%.

As to `CC(C)(C)c1ccc(CN(C(=O)C(=O)O)c2cc(-c3ccc(OC(F)(F)F)cc3)cc(C(F)(F)F)c2)cc1` [Compound 139], at recombinant human PAI-1 [1], the inhibition at 0.1 µM was 0%, the inhibition at 0.3 µM stood at 3%, the inhibition at 1 µM is 30% and the inhibition at 3 µM worked out at 97%. The inhibition at 5 µM on recombinant human PAI-1 [2] (setting [5]) is 25%. The inhibition at 10 µM on recombinant human PAI-1 [2] (setting [6]) is 59%. Moreover, the inhibition at 25 µM at recombinant human PAI-1 [2] (setting [7]) turned out to be 66%. On recombinant rat PAI-1, the inhibition at 0.3 µM is 0%, the inhibition at 1 µM is 22%, the inhibition at 3 µM stood at 85% and the inhibition at 10 µM was determined as 88%. Also, at recombinant human PAI-1 [3], the inhibition at 0.3 µM was 6%, the inhibition at 1 µM is 10% and the inhibition at 3 µM turned out to be 32%.

Consider `CC(C)(C)c1ccc(CN(C(=O)C(=O)O)c2ccc(Oc3ccc(OC(F)(F)F)cc3)cc2C(F)(F)F)cc1` [Compound 174], for which, at recombinant human PAI-1 [1], the inhibition at 0.1 µM is 0%, the inhibition at 0.3 µM was found to be 0%, the inhibition at 1 µM is 26% and the inhibition at 3 µM turned out to be 96%. Also, on recombinant human PAI-1 [2] (setting [5]), the inhibition at 5 µM turned out to be 61%. Moreover, on recombinant human PAI-1 [2] (setting [6]), the inhibition at 10 µM is 92%. Further, the inhibition at 25 µM on recombinant human PAI-1 [2] (setting [7]) amounted to 91%. At recombinant rat PAI-1, the inhibition at 0.3 µM turned out to be 0%, the inhibition at 1 µM amounted to 11%, the inhibition at 3 µM came out at 76% and the inhibition at 10 µM is 94%. Moreover, at recombinant human PAI-1 [3], the inhibition at 0.3 µM was determined as 0%, the inhibition at 1 µM stood at 7% and the inhibition at 3 µM was 32%.

In the case of `Cc1ccc(N(Cc2ccc(C(C)(C)C)cc2)C(=O)C(=O)O)cc1-c1ccc(OC(F)(F)F)cc1` [Compound 176], on recombinant human PAI-1 [1], the inhibition at 0.1 µM was 0%, the inhibition at 0.3 µM is 10%, the inhibition at 1 µM stood at 21% and the inhibition at 3 µM amounted to 96%. Besides, the inhibition at 5 µM on recombinant human PAI-1 [2] (setting [5]) amounted to 65%. Moreover, at recombinant human PAI-1 [2] (setting [6]), the inhibition at 10 µM worked out at 94%. The inhibition at 25 µM at recombinant human PAI-1 [2] (setting [7]) came out at 91%. At recombinant rat PAI-1, the inhibition at 0.3 µM worked out at 0%, the inhibition at 1 µM stood at 23%, the inhibition at 3 µM was determined as 71% and the inhibition at 10 µM was more than 99%. On recombinant human PAI-1 [3], the inhibition at 0.3 µM amounted to 9%, the inhibition at 1 µM was 9% and the inhibition at 3 µM is 29%.

For the compound `CCCOc1ccc(N(Cc2ccc(C(C)(C)C)cc2)C(=O)C(=O)O)cc1-c1ccc(OC(F)(F)F)cc1` [Compound 185], at recombinant human PAI-1 [1], the inhibition at 0.1 µM was 0%, the inhibition at 0.3 µM was determined as 9%, the inhibition at 1 µM was 34% and the inhibition at 3 µM was more than 99%. Further, the inhibition at 5 µM at recombinant human PAI-1 [2] (setting [5]) is 81%. In addition, at recombinant human PAI-1 [2] (setting [6]), the inhibition at 10 µM came to 87%. For the same compound, the inhibition at 25 µM on recombinant human PAI-1 [2] (setting [7]) was 89%. At recombinant rat PAI-1, the inhibition at 0.3 µM turned out to be 3%, the inhibition at 1 µM stood at 17%, the inhibition at 3 µM came to 85% and the inhibition at 10 µM was determined as 76%. In addition, on recombinant human PAI-1 [3], the inhibition at 0.3 µM was 10%, the inhibition at 1 µM worked out at 20% and the inhibition at 3 µM came to 49%.

`CC(C)(C)c1ccc(CN(C(=O)C(=O)O)c2ccc(Cl)c(-c3ccc(OC(F)(F)F)cc3)c2)cc1` [Compound 186]: at recombinant human PAI-1 [1], the inhibition at 0.1 µM is 0%, the inhibition at 0.3 µM amounted to 9%, the inhibition at 1 µM came out at 22% and the inhibition at 3 µM is more than 99%. Further, on recombinant human PAI-1 [2] (setting [5]), the inhibition at 5 µM was 76%. Moreover, the inhibition at 10 µM at recombinant human PAI-1 [2] (setting [6]) was 91%. Moreover, on recombinant rat PAI-1, the inhibition at 0.3 µM was found to be 2%, the inhibition at 1 µM is 27%, the inhibition at 3 µM was 83% and the inhibition at 10 µM is 89%. At recombinant human PAI-1 [3], the inhibition at 0.3 µM came out at 15%, the inhibition at 1 µM was 37% and the inhibition at 3 µM amounted to 53%.
